From ChEMBL document CHEMBL6092127, “Recent advancement in developing small molecular inhibitors targeting key kinase pathways against triple-negative breast cancer” (Bioorg Med Chem, 2024) come the findings set out here.

The target of experiment [1] is Phosphatidylinositol 4,5-bisphosphate 3-kinase catalytic subunit alpha isoform (Homo sapiens, UniProt P42336). The experiment is described as follows: Inhibition of PI3Kalpha (unknown origin).
For experiment [2], the target named is Serine/threonine-protein kinase mTOR (Homo sapiens, UniProt P42345). The experiment is described as follows: Inhibition of mTOR (unknown origin).
Another experiment concerns MCF7. As to the kind of experiment: Antiproliferative activity against human MCF7 cells assessed as reduction in cell viability by MTT assay. It is filed as functional, cell-based.
For another experiment, the system named is MDA-MB-231. The experiment is described as follows: Antiproliferative activity against human MDA-MB-231 cells assessed as reduction in cell viability by MTT assay. It is filed as functional, cell-based.
Experiment [3] in a line: Growth inhibition of human Triple-negative breast cancer cell incubated for 24 hrs by MTT assay. The class given is functional. In general terms: Tetrazolium dyes change colour on reduction, which living cells bring about.
Experiment [4] can be described thus: Antiproliferative activity against human EFM-192A cells assessed as reduction in cell growth measured for 24 hrs by MTT assay. The class given is functional, cell-based.

Phosphatidylinositol 4,5-bisphosphate 3-kinase catalytic subunit alpha isoform, sequence (P42336 whole entry, canonical isoform): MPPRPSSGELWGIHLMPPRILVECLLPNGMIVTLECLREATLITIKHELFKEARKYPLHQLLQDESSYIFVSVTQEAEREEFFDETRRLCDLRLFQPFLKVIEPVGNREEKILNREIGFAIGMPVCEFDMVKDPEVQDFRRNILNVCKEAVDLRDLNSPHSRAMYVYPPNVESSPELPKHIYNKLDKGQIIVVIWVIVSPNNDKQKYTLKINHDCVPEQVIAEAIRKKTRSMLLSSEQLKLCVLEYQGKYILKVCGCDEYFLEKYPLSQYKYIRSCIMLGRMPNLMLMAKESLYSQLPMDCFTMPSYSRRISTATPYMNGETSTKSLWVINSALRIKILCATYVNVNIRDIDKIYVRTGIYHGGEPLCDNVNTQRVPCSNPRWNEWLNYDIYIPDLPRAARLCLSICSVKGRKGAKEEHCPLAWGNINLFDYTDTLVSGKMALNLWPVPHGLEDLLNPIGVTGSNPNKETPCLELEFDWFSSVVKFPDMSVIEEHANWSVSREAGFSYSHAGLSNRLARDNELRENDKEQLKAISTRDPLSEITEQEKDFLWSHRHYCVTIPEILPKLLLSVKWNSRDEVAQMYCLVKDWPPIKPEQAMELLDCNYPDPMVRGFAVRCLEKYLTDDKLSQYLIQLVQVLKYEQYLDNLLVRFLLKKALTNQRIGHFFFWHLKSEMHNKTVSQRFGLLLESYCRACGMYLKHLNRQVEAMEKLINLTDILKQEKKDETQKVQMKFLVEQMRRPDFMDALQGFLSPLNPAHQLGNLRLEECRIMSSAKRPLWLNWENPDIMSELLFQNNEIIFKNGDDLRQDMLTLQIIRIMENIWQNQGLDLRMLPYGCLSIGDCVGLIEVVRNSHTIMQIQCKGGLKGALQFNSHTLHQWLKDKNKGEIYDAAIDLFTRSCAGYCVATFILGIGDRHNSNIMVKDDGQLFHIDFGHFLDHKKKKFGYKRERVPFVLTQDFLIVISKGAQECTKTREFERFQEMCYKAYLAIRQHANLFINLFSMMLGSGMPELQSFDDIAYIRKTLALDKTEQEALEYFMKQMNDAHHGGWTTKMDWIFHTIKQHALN

In the case of `CS(=O)(=O)N1CCN(Cc2ccc(-c3nc(-c4ccc(NC(=O)Nc5cccnc5)cc4)nc(N4CCOCC4)n3)s2)CC1`, the IC50 in experiment [1] turned out to be 291 nM; in experiment [2] it was 60.8 nM; in the experiment on MCF7, 2 nM; in the experiment with MDA-MB-231 it was 2 nM.
For the molecule `N#Cc1ccc(CN2C(=O)c3cc4ccccc4n3C[C@H]2C(=O)NCc2ccccc2)cc1`, the GI50 in experiment [3] is 2960 nM.
For `COc1ccc(CCc2cc(OC)c(OC)c(OC)c2)cc1O`, in experiment [4], the IC50 turned out to be 78.6 nM.

For orientation: IC50 means the point on the concentration scale where inhibition reaches its midpoint. Usually GI50 stands for the concentration giving 50% growth inhibition. Lower therefore signals greater sensitivity of the cells.
